The source of these data is patent publication EP4733388A1, “LACTOBACILLUS RHAMNOSUS STRAIN, VIABLE BACTERIA FORMULATION AND PREPARATION METHOD THEREFOR AND USE THEREOF” (priority 2023, dated 2024).

For one test, the system named is L. rhamnosus GG strain. As to the kind of experiment: Antibiotic susceptibility test, K-B agar method (disc diffusion). It is filed as cell-based, Lactobacillus rhamnosus. As to conditions: standard antibiotic disc, 37°C, 48 h; CLSI criteria, breakpoints in mm per antibiotic in c1-c3. As to the method:
(§1) The drug susceptibility test was performed using the K-B agar method recommended by the National Committee for Clinical Laboratory Standards (NCCLS), the drug sensitivity test, as follows: • (1) The commercial strain L. rhamnosus GG strain was selected as the control strain. The L. rhamnosus HOM1213 strain and the GG strain were inoculated in MRS liquid medium at an inoculation amount of 3% of the total amount of the medium, cultured at 37°C for 24 hours, and activated continuously for 3 generations for later use. • (2) 1 mL of bacterial solution (1.5 × 10^8 CFU/mL) and 15 mL of MRS solid medium were mixed, and placed in a sterile culture dish, and mixed uniformly. A standard antibiotic susceptibility testing disc was placed after the plate was solidified, and cultured at 37°C for 48 h, and the diameter of the inhibition zone was measured and recorded.
(§2) Table 3. Results of susceptibility test of L. rhamnosus HOM1213 strain on nine antibiotics.

Test [1] deals with L. rhamnosus HOM1213 strain. Described as above. Format: cell-based, Lactobacillus rhamnosus. Conditions: for Susceptibility (class by Diameter of Inhibition Zone), HOM1213 Group: standard antibiotic disc, 37°C, 48 h, CLSI criteria, breakpoints in mm per antibiotic in c1-c3; for Susceptibility of L. rhamnosus HOM1213 strain to the antibiotic, in words: summary of Table 3. As to the method: as §1, §2

The next test relates to glutathione (GSH). Put plainly: In vitro antioxidant capacity test: glutathione (GSH). As to conditions: strain suspension 2 × 10^10 CFU/ml; vitamin C 0.05%; mean ± SD. As to the method:
(§3) The L. rhamnosus HOM1213 isolated in Example 1 and GG strains were inoculated in an MRS liquid medium at an inoculation amount of 3% of the total amount of the medium, fermented and cultured at 37°C for 24 h, activated continuously for 3 generations. It was centrifuged at 11000 rpm for 10 min, and the bacterial cells were washed with PBS buffer, resuspended and centrifuged, repeated three times. The count of bacteria was adjusted to 2 × 10^10 CFU/ml for later use. Indicators included total antioxidant capacity (T-AOC), superoxide dismutase (SOD), glutathione peroxidase (GSH-Px), glutathione (GSH), hydroxyl radical scavenging test (·OH), and DPPH radical scavenging test. The DPPH free radical scavenging test used a colorimetric method, and its principle was that the free radical scavenger donated an electron to pair with the lone pair electron of the DPPH free radicals, so that its own color changed from purple to yellow. Its absorbance at the wavelength of 517 nm decreased, and the degree of change has a linear relation to the degree of free radical scavenging, that is, the stronger the scavenging ability of the free radical scavenger, the lower the absorbance. Other indicators were determined by using a kit purchased from Nanjing Jiancheng Company, according to operation instructions. […]

Test [2] in a line: DPPH radical scavenging test (colorimetric, 517 nm). Conditions: strain suspension 2 × 10^10 CFU/ml; vitamin C 0.05%; mean ± SD. As for the experimental part: as §3
A general note: The DPPH test is a chemical assay of radical scavenging.

The nature of test [3]: In vitro antioxidant capacity test: total antioxidant capacity (T-AOC). Conditions: strain suspension 2 × 10^10 CFU/ml; vitamin C 0.05%; mean ± SD. As to the method: as §3
Test [4] concerns superoxide dismutase (SOD). As to the kind of experiment: In vitro antioxidant capacity test: superoxide dismutase (SOD). Conditions: strain suspension 2 × 10^10 CFU/ml; vitamin C 0.05%; mean ± SD. As to the method:
as §3

Test [5] can be described thus: Hydroxyl radical scavenging test (·OH). Conditions: strain suspension 2 × 10^10 CFU/ml; vitamin C 0.05%; mean ± SD. As to the method:
as §3
Wherever Susceptibility (class by Diameter of Inhibition Zone), GG Group is given: key: S (susceptible) represents sensitivity; I (intermediate) represents moderate sensitivity; R (resistance) represents drug resistance.
Wherever Susceptibility (class by Diameter of Inhibition Zone), HOM1213 Group is given: key: S (susceptible) represents sensitivity; I (intermediate) represents moderate sensitivity; R (resistance) represents drug resistance.

Regarding `CC[C@H]1OC(=O)[C@H](C)[C@@H](O[C@H]2C[C@@](C)(OC)[C@@H](O)[C@H](C)O2)[C@H](C)[C@@H](O[C@@H]2O[C@H](C)C[C@H](N(C)C)[C@H]2O)[C@](C)(O)C[C@@H](C)C(=O)[C@H](C)[C@@H](O)[C@]1(C)O` [Erythromycin], the “Susceptibility (class by Diameter of Inhibition Zone), GG Group” value in the test on L. rhamnosus GG strain is listed as “S”. Also, in test [1], the “Susceptibility (class by Diameter of Inhibition Zone), HOM1213 Group” value was “S”.
Consider `[H]/N=C(/N)N[C@H]1[C@H](O)[C@@H](O)[C@H](O[C@@H]2O[C@@H](C)[C@](O)(C=O)[C@H]2O[C@@H]2O[C@@H](CO)[C@H](O)[C@@H](O)[C@@H]2NC)[C@@H](N/C(N)=N\[H])[C@@H]1O` [Streptomycin], for which the “Susceptibility (class by Diameter of Inhibition Zone), GG Group” value in the test with L. rhamnosus GG strain is listed as “I”. For the same compound, in test [1], the “Susceptibility (class by Diameter of Inhibition Zone), HOM1213 Group” value is “I” and the “Susceptibility of L. rhamnosus HOM1213 strain to the antibiotic, in words” value (“Susceptibility … in words” below) is listed as “moderately resistant”.
Take `CN[C@H](CC(C)C)C(=O)N[C@H]1C(=O)N[C@@H](CC(N)=O)C(=O)N[C@H]2C(=O)N[C@H]3C(=O)N[C@H](C(=O)N[C@H](C(=O)O)c4cc(O)cc(O)c4-c4cc3ccc4O)[C@H](O)c3ccc(c(Cl)c3)Oc3cc2cc(c3O[C@@H]2O[C@H](CO)[C@@H](O)[C@H](O)[C@H]2O[C@H]2C[C@](C)(N)[C@H](O)[C@H](C)O2)Oc2ccc(cc2Cl)[C@H]1O` [Vancomycin]: the “Susceptibility (class by Diameter of Inhibition Zone), GG Group” value with L. rhamnosus GG strain is “R”. Also, in test [1], the “Susceptibility (class by Diameter of Inhibition Zone), HOM1213 Group” value is recorded as “R” and the “Susceptibility … in words” value is “resistant”.
With `CC1(C)S[C@@H]2[C@H](NC(=O)[C@H](N)c3ccccc3)C(=O)N2[C@H]1C(=O)O` [Ampicillin], in the test with L. rhamnosus GG strain, the “Susceptibility (class by Diameter of Inhibition Zone), GG Group” value is listed as “R”. In addition, in test [1], the “Susceptibility (class by Diameter of Inhibition Zone), HOM1213 Group” value is on record as “R” and the “Susceptibility … in words” value is listed as “resistant”.
`O=C1O[C@H]([C@@H](O)CO)C(O)=C1O` [Vitamin C] returned a GSH with glutathione (GSH) of 0.33±0.06 mgGSH/L. The “DPPH Scavenging Rate (%)” value in test [2] amounted to 96.14±0.08%. The same compound displayed a T-AOC in test [3] of 16.90±1.42 U/mL. This compound also came in with an SOD in test [4] of 18.07±1.08 U/mL. In test [5], the “·OH Scavenging Rate (%)” value is recorded as 36.70±1.33%.
Consider `CCC[C@@H]1C[C@@H](C(=O)N[C@@H]([C@H]2O[C@H](SC)[C@H](O)[C@@H](O)[C@H]2O)[C@H](C)Cl)N(C)C1` [Clindamycin], for which the “Susceptibility (class by Diameter of Inhibition Zone), GG Group” value in the test on L. rhamnosus GG strain is recorded as “S”. Further, the “Susceptibility (class by Diameter of Inhibition Zone), HOM1213 Group” value in test [1] is recorded as “S”.
In the case of `CN(C)[C@@H]1C(O)=C(C(N)=O)C(=O)[C@@]2(O)C(O)=C3C(=O)c4c(O)cccc4[C@@](C)(O)[C@H]3C[C@@H]12` [Tetracycline], the “Susceptibility (class by Diameter of Inhibition Zone), GG Group” value with L. rhamnosus GG strain is given as “S”. Besides, the “Susceptibility (class by Diameter of Inhibition Zone), HOM1213 Group” value in test [1] was “S”.
On to `O=C(N[C@H](CO)[C@H](O)c1ccc([N+](=O)[O-])cc1)C(Cl)Cl` [Chloramphenicol], for which the “Susceptibility (class by Diameter of Inhibition Zone), GG Group” value in the test with L. rhamnosus GG strain is reported as “S”. In test [1], the “Susceptibility (class by Diameter of Inhibition Zone), HOM1213 Group” value is “S”.
Consider `NC[C@H]1O[C@H](O[C@H]2[C@H](O)[C@@H](O[C@H]3O[C@H](CO)[C@@H](O)[C@H](N)[C@H]3O)[C@H](N)C[C@@H]2N)[C@H](O)[C@@H](O)[C@@H]1O` [Kanamycin], for which the “Susceptibility (class by Diameter of Inhibition Zone), GG Group” value in the test with L. rhamnosus GG strain is “R”. Moreover, the “Susceptibility (class by Diameter of Inhibition Zone), HOM1213 Group” value in test [1] was “R”.
For the compound Gentamicin, the “Susceptibility (class by Diameter of Inhibition Zone), GG Group” value with L. rhamnosus GG strain is “R”. In addition, in test [1], the “Susceptibility (class by Diameter of Inhibition Zone), HOM1213 Group” value was “R” and the “Susceptibility … in words” value is “resistant”.
